Reference: ChEMBL document CHEMBL1201862, “PubChem BioAssay data set” (2004)
Active and inactive are the calls of the source. Numbered stars: 1 amine (or outer) side, 2 acyl side, 3 side chain; on linkers, the order of the positions; unused ones are H or OH. Square brackets hold non-standard residues; d marks the D form. Peptide text beside a SMILES is read from it. ξ: configuration not given here. X1 = CCCCCCC[C@H](O)C[C@@H](N[*:1])[C@@H](O)C(=O)[*:2]; X3 = COc1ccc(CCCC(N[*:1])C(=O)[*:2])cc1; ξThr(3R) = C[C@@H](O)C(N)C(=O)O; NMeN = CN[C@@H](CC(N)=O)C(=O)O; X2 = C/C=C(/N[*:1])C(=O)[*:2]; Dhb = C/C=C(\N)C(=O)O; Sar = CNCC(=O)O

Assays:
[1] = target: T1, Short transient receptor potential channel 4 (Mus musculus, UniProt Q9QUQ5); assay: mouse TRPC4 channel inhibitors, dose response, cell-based, HEK293 TRPC4/mu-opioid, Fluo-4 calcium (AID 434942); assay type: functional;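 also: potency of inhibitors blocking the TRPC4 calcium response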
T1 sequence (Q9QUQ5 whole entry): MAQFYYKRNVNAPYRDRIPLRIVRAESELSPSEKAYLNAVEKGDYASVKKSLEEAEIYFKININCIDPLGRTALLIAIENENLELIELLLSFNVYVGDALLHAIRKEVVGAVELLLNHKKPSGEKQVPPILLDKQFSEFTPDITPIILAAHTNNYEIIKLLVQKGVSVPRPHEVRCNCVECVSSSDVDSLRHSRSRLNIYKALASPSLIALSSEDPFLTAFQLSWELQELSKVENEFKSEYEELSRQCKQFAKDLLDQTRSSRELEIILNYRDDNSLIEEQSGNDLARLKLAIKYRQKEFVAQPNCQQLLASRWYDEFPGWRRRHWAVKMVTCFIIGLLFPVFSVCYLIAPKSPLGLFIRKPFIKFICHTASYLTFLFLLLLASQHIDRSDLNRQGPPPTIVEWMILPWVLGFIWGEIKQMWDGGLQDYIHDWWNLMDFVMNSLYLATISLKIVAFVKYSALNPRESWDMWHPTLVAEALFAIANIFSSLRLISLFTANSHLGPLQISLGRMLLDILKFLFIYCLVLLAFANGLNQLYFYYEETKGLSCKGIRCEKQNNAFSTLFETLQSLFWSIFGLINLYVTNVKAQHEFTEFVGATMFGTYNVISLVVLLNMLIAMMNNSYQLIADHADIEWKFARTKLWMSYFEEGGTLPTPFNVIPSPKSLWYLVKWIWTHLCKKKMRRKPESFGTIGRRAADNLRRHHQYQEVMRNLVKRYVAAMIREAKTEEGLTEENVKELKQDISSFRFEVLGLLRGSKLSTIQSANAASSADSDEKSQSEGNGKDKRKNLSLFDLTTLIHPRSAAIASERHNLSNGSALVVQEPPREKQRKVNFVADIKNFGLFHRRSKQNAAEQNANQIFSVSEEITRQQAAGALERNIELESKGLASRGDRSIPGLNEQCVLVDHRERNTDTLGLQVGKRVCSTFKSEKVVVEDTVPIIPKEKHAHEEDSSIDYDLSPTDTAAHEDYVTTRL

[2] = target: T2, Long-chain-fatty-acid--AMP ligase FadD28 (Mycobacterium tuberculosis, UniProt P9WQ59); assay: Fluorescence polarization aasay to screen for inhibitors that compete for the binding of FadD28 to a bisubstrate Measured in Biochemical System Using Plate Reader - 2147-01_Inhibitor_Dose_CherryPick_Activity.; assay type: functional, Mycobacterium tuberculosis H37Rv
T2 sequence (P9WQ59 whole entry): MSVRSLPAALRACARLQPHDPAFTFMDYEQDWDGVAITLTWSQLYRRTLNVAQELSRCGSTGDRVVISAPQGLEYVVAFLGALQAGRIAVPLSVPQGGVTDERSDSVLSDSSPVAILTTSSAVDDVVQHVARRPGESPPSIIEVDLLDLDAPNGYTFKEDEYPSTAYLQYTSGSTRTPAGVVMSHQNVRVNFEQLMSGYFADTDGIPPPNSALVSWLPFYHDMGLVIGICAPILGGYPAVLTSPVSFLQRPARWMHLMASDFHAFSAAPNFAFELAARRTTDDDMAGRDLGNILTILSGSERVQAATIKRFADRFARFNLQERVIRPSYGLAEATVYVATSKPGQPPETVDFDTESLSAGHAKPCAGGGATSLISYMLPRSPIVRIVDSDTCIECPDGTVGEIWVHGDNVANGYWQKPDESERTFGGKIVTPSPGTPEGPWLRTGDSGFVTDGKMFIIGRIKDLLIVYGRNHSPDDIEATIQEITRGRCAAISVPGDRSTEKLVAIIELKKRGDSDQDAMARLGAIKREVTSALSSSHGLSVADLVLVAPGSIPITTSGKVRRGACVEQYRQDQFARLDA

[3] = off-target signal loss in HeLa-CEM21 co-culture – HeLa F-luc CTL cells, cherry-picked, counter-screen for HIV-1 Env fusion inhibitor project, dose response (AID 652040); assay type: functional, cell-based;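 also: potency for signal decrease marking cytotoxic or nonspecific inhibition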
[4] = CEM21 lymphoblast cell cytotoxicity, dose response, cytotoxicity control for viral fusion inhibitor project, CellTiter-Glo luminescence, cherry-picked (AID 652042); assay type: functional, cell-based;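 also: potency for signal decrease meaning cytotoxicity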
cells [5] = assay type: functional, cell-based
cells [6] = assay type: functional, cell-based; remark: listed apart in the source
Protein Wnt-3a = Protein Wnt-3a (Mus musculus, UniProt P27467); assay: Wnt3a-driven reporter signaling inhibition, dose response, selectivity assay for Gli-SUFU antagonist project, Wnt-LIGHT cells, luminescence (AID 651570); assay type: functional; settings: read-out: IC50_Mean;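 also: Wnt-LIGHT reporter cells stimulated with conditioned medium from Wnt3a-producing cells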
[7] = insulin promoter down-regulators in MIN6 cells, imaging, high-content screening, mouse beta cells (AID 1628); assay type: functional
[8] = cytotoxicity in MIN6 insulinoma cells, dose response, cytotoxicity control, cell-based, mouse insulinoma (AID 2122); assay type: functional;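 also: confirmatory high-throughput counterscreen run to flag cytotoxic compounds; mouse MIN-6 beta cells carrying an insulin promoter eGFP reporter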
[9] = HepG2 cell cytotoxicity, dose response, cytotoxicity control for Shn3 inhibitor project, CellTiter-Glo, cherry-picked (AID 624134); assay type: functional, cell-based
[10] = inhibitors of clade B AD8 Env fusion, dose response, cell-based, cherry-pick (AID 652062); assay type: functional;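 also: luciferase signal from cell-cell fusion driven by HIV-1 clade B AD8 Env; potency is for inhibitors of fusion seen as a drop in luminescence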
[11] = Shn3 3'UTR reporter inhibitors, dose response, cell-based, Clone20 osteoblasts, firefly luciferase, cherry-picked (AID 624132); assay type: functional;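 also: firefly luciferase luminescence from reporter carrying the Shn3 3'UTR in osteoblasts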
[12] = control 3'UTR Renilla luciferase suppression, dose response, counter-screen for Shn3 inhibitor project, cell-based, Clone20-Shn3RL, cherry-picked (AID 624133); assay type: functional
INS1 = assay: beta cell apoptosis inhibitors, cytokine rescue, dose response, luminescence, retest (AID 449756); assay type: functional, cell-based; settings: Rattus norvegicus;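 also: cell death triggered by IL-1 beta plus TNF-alpha plus IFN-gamma mixture; protective hits raise ATP signal compared with cytokine alone wells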
[13] = Luminescence Cell-Based Dose Response HTS to Identify Inhibitors of 5'UTR Stem-Loop Driven Prion Protein mRNA Translation in H4 Neuroglioblastoma Cells. [Related pubchem assays: 1827 (Project Summary), 1813 (Primary HTS)]; assay type: functional
[14] = ZM109 Env clade C HIV-1 fusion inhibitors, dose response, HeLa effector, CEM target cells, luciferase, cherry-pick (AID 652058); assay type: functional, cell-based
[15] = inhibitors of SNCA 5'UTR-driven reporter translation, confirmation, H4 neuroglioma cells, luminescence (AID 1988); assay type: functional, cell-based
[16] = inhibitors of HIV Env-driven cell fusion, dose response, cherry-pick (AID 652057); assay type: functional, cell-based
[17] = inhibitors of firefly luciferase expression or activity, dose response, H4 neuroglioma cells, luminescence (AID 1990); assay type: functional, cell-based
H9c2 = assay: cells; assay type: functional, cell-based; settings: Rattus norvegicus, H9c2, Myocardium;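 also: confirmatory concentration-response retest of ultra-high-throughput screening hits for modulation of myocardial damage; cell death induced by hydrogen peroxide oxidative stress; compound pretreatment for 60 min then peroxide exposure for 2 h; potency is for protecting the cells against peroxide damage rather than for killing them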
Albumin = Albumin (Bos taurus, UniProt P02769); assay: Counterscreen for inhibitors of T-cell receptor (TCR)-CD3 interaction: Fluorescence-based biochemical high throughput dose response assay to identify inhibitors of T-cell receptor (TCR)-CD3 interaction using a TAMRA-labeled BSA probe.; assay type: functional
[18] = target: T1, Short transient receptor potential channel 4; assay: mouse TRPC4 channel activators, dose response, cell-based, HEK293 TRPC4/mu-opioid, Fluo-4 calcium (AID 434937); assay type: functional
cells [19] = assay type: functional
[20] = target: T3, Heat shock factor protein 1 (Mus musculus, UniProt P38532); assay: inhibition of MG132-induced HSE-luciferase signal, confirmation, cell-based, NIH3T3, luminescence, dose retest (AID 2382); assay type: functional;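 also: NIH3T3 fibroblasts with HSF1-driven luciferase reporter stressed by proteasome inhibitor MG132; luminescence from HSF1-driven luciferase expression after 8 hours of MG132 stress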
T3 sequence (P38532 whole entry): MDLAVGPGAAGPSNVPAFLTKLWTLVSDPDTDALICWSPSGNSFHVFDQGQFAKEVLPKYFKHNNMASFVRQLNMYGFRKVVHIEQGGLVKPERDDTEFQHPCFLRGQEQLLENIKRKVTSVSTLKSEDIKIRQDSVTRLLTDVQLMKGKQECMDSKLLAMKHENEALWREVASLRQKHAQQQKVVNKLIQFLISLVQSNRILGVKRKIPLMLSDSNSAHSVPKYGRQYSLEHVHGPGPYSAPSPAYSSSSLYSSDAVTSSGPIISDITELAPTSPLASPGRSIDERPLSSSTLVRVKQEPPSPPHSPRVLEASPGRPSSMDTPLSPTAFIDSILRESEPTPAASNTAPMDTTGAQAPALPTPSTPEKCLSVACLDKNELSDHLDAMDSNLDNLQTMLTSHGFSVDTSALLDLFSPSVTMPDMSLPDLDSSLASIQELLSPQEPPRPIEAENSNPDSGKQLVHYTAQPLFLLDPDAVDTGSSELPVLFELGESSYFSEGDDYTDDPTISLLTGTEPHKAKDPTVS

Sequence of Protein Wnt-3a (P27467 whole entry): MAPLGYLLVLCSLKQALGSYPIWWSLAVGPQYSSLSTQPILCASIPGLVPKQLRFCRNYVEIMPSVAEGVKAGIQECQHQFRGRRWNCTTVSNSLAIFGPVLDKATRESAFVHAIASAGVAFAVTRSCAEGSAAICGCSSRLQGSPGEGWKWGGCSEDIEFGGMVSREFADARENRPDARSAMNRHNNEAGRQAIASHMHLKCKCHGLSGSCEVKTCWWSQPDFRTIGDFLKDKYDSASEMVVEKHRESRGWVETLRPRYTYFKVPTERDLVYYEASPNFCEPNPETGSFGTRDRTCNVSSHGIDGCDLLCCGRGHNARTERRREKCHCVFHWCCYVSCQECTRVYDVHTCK
Sequence of Albumin (P02769 whole entry): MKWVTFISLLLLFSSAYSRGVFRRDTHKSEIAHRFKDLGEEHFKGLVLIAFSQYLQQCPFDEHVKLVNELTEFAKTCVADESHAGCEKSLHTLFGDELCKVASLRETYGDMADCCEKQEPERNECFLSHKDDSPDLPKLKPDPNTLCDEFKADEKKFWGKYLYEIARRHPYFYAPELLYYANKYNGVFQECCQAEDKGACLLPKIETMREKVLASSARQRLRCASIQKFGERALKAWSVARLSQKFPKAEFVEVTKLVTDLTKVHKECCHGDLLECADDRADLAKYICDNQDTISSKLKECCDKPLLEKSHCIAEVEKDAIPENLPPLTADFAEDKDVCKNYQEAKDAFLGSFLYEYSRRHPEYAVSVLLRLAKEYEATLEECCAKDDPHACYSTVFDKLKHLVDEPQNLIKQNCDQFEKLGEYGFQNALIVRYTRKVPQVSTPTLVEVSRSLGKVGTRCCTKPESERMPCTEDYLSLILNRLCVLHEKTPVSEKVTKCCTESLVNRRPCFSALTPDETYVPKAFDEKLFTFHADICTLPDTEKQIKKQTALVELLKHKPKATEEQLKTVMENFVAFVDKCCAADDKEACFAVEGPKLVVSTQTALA

For `CC1Oc2ccccc2C=C1/C=N/Nc1ccc(C(=O)O)cc1` (stereo not drawn), the EC50 [1] was 2.99 µM (active) and the AC50 [2] was 34.2 µM (active).
With `COc1ccc(-c2nn(C)c(=O)c3ccccc23)cc1NC(=O)COc1ccccc1` the AC50 [3] was 46.2 µM (active) and the AC50 [4] was 42.7 µM (active).
In the case of `CCOC(=O)C(NCCc1ccccc1)(NC(C)=O)C(F)(F)F` (stereo not drawn), the IC50 (cells [5]) is reported as > 29.9 µM (inactive) and the EC50 (cells [6]) is reported as > 29.9 µM (inactive).
With `Cc1cccc(NC(=O)CN2C(=O)N/C(=C/c3cc(C)n(-c4ccncc4)c3C)C2=O)c1` the AC50 [2] was 18.7 µM (active).
With `C/C=C1\NC(=O)[C@H](CC(N)=O)N(C)C(=O)C([C@@H](C)O)NC(=O)C(CCCc2ccc(OC)cc2)NC(=O)[C@H](C(C)C)NC(=O)/C(=C\C)NC(=O)[C@H](O)[C@@H](C[C@@H](O)CCCCCCC)NC(=O)[C@H](C)NC(=O)CN(C)C(=O)[C@H](CCC(N)=O)NC1=O` (stereo partly drawn) (cyclo(A[X1][X2]V[X3][ξThr(3R)][NMeN][Dhb]Q[Sar])) the AC50 [2] was > 100 µM (inactive).
In the case of `COCCn1c(CN2CCC(Cc3ccccc3)CC2)nc2c1c(=O)n(C)c(=O)n2C`, the IC50 (Protein Wnt-3a) is reported as 2.11 µM (active), the IC50 [7] is reported as 0.597 µM (active) and the IC50 [8] is reported as 0.355 µM (active).
In the case of `CCCCn1c(CN(C)Cc2ccccc2)nc2c1c(=O)n(C)c(=O)n2C`, the AC50 [9] is reported as 68.8 µM (active), the IC50 (Protein Wnt-3a) is reported as 4.51 µM (active) and the AC50 [10] is reported as 4.78 µM (active). The AC50 [11] was 2.38 µM (active) and the AC50 [12] was 2.08 µM (active).
For `COc1ccc(-c2nnn(CC(=O)c3c[nH]c4ccccc34)n2)cc1OC`, the AC50 [2] was > 100 µM (inactive).
With `COc1ccc2nc(Nc3nc(O)cc(CSc4nc5ccccc5[nH]4)n3)nc(C)c2c1` the AC50 (INS1) was 20.5 µM (active), the EC50 [13] was 10.2 µM (active) and the AC50 [3] was 3.06 µM (active). The AC50 [14] was 3.57 µM (active), the EC50 [15] was 10.2 µM (active) and the AC50 [10] was 4 µM (active). For the same molecule, the AC50 [16] was 2.16 µM (active), the AC50 [4] was 5.77 µM (active) and the EC50 [17] was 5.63 µM (active). The IC50 (H9c2) was > 79 µM (inactive).
In the case of `Cc1cc(Cl)ccc1OCC(=O)N1CCCN(C(=O)COc2ccc(Cl)cc2C)CC1`, the AC50 [3] is reported as 2.71 µM (active), the AC50 [14] is reported as 2.8 µM (active) and the AC50 [10] is reported as 2.45 µM (active). The AC50 [16] was 1.98 µM (active) and the AC50 [4] was 67.3 µM (active).
For `O=C(CCN1C(=O)/C(=C\c2ccccc2)SC1=S)NNC(=O)c1ccccc1O`, the IC50 (Albumin) was > 94.1 µM (inactive).
For `Cc1ccc(/C=C2\SC(=S)N(CCC(=O)NNC(=O)c3ccccc3O)C2=O)cc1`, the IC50 (Albumin) was > 94.1 µM (inactive).
With `CCOc1cc(CNCCc2c[nH]c3ccccc23)cc(Cl)c1OC` the EC50 [18] was 3.35 µM (active), the AC50 [3] was 2.85 µM (active) and the AC50 [14] was 0.843 µM (active). The AC50 [10] was 5.22 µM (active), the AC50 [16] was 1.77 µM (active) and the AC50 [4] was 21.5 µM (active).
In the case of `O=C(CNC(=O)c1ccccc1Cl)N/N=C/C=C/c1ccccc1`, the IC50 (cells [5]) is reported as > 29.9 µM (inactive) and the EC50 (cells [6]) is reported as > 29.9 µM (inactive).
For `O=C(CNC(=O)c1ccc([N+](=O)[O-])cc1)N/N=C/c1c[nH]c2ccccc12`, the AC50 [2] was 30.2 µM (active).
In the case of `COc1ccc(CN2CCC(C(=O)Nc3ccc(Oc4cccnc4)cc3)CC2)c(C)c1C`, the AC50 [9] is reported as 12.9 µM (active), the IC50 (cells [19]) is reported as 10.3 µM (active) and the IC50 (Protein Wnt-3a) is reported as 5.34 µM (active). The EC50 [20] was > 195 µM (not active) and the AC50 [11] was 3.68 µM (active).
